# From the supplement of paper PMC10307832
# How the values were obtained:
# Assay in all cases: relative viability (nuclei count vs DMSO), 5 days (fraction); higher = more cells survive
# RAF265 + Bortezomib = compound: Cn1c(Nc2ccc(C(F)(F)F)cc2)nc2cc(Oc3ccnc(-c4ncc(C(F)(F)F)[nH]4)c3)ccc21 [RAF265] + CC(C)C[C@H](NC(=O)[C@H](Cc1ccccc1)NC(=O)c1cnccn1)B(O)O [Bortezomib] (partner 0.002 µM)
# Summary of the method: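 Lung cancer cell lines were seeded in 1536-well plates and dosed by pin tool the next day, with either a single drug or a fixed anchor-drug dose combined with five library-drug doses (not always all listed) spaced in √10 steps. Five days later, one step fixed the cells and stained their nuclei (final 0.05% Triton X-100, 1% formaldehyde, 1 ug/ml Hoechst), and nuclei were counted on 4× images. Relative viability is the nuclei count in treated wells divided by the count in vehicle wells, and each value is the median of duplicate plates.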
# Doramapimod = compound: Cc1ccc(-n2nc(C(C)(C)C)cc2NC(=O)Nc2ccc(OCCN3CCOCC3)c3ccccc23)cc1 [Doramapimod]
# Summary of the method: (§1)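 After an overnight hold at 37 °C, lung cancer cell lines in 1536-well plates were pinned with five library-drug doses (not always all listed), each √10 from the next, on vehicle-anchored plates. The cells stayed 5 days without fresh medium, then a one-step fix, permeabilisation and Hoechst stain preceded 4× imaging and MetaXpress nuclear counts. A plate passed only with control CV under 25% and at least one doubling. Viability is the median, over plates, of treated-well nuclei relative to vehicle-well nuclei.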
# IPA-3 = compound: C1=CC=C2C(=C1)C=CC(=C2SSC3=C(C=CC4=CC=CC=C43)O)O [IPA-3]
# Summary of the method: as §1
# RAF265 = compound: Cn1c(Nc2ccc(C(F)(F)F)cc2)nc2cc(Oc3ccnc(-c4ncc(C(F)(F)F)[nH]4)c3)ccc21 [RAF265]
# Summary of the method: as §1
cell line,measurement,setting,value
UMC-11,relative viability,RAF265 + Bortezomib; first compound 0.01 µM,0.624
same,relative viability,RAF265 + Bortezomib; first compound 0.03162 µM,0.724
same,relative viability,RAF265 + Bortezomib; first compound 0.1 µM,0.758
same,relative viability,RAF265 + Bortezomib; first compound 0.3162 µM,0.745
same,relative viability,RAF265 + Bortezomib; first compound 1 µM,0.537
same,relative viability,Doramapimod; 0.02 µM,0.904
same,relative viability,Doramapimod; 0.06325 µM,0.934
same,relative viability,Doramapimod; 0.2 µM,0.956
same,relative viability,Doramapimod; 0.6325 µM,0.782
same,relative viability,Doramapimod; 2 µM,0.841
same,relative viability,IPA-3; 0.2 µM,1.08
same,relative viability,IPA-3; 0.6325 µM,0.932
same,relative viability,IPA-3; 2 µM,0.967
same,relative viability,IPA-3; 6.325 µM,0.916
same,relative viability,IPA-3; 20 µM,1.09
same,relative viability,RAF265; 0.01 µM,0.975
same,relative viability,RAF265; 0.03162 µM,0.95
same,relative viability,RAF265; 0.1 µM,0.942
same,relative viability,RAF265; 0.3162 µM,0.948
same,relative viability,RAF265; 1 µM,0.872
